Results from patent publication US20070287630A1, “Moisturizing agent with nutrients” (DriWater, Inc., priority 2006, published 2007).

Settings: acetic acid acting as a preservative in the gel

effect on gel degradation in soil: slow gel degradion in soil
Structure (SMILES): CC(=O)O [acetic acid]
